Measured values from patent US20160264593A1 (priority 2013, published 2016).
Where “and” joins values, the source holds several entries; their conditions need not be identical. Identical values can stand only once.

What was measured:
PP2A [1] = assay: PP2A activity in mouse livers after IP dosing (PP2A immunoprecipitation phosphatase assay, malachite green); assay type: in vivo, Balb/c mice; settings: liver
Procedure: (§1) Coomassie (Bradford) Protein Assay Kit (Pierce); PP2A Immunoprecipitation Phosphatase Assay Kit (Millipore); Lysate preparation for low endogenous phosphate: 20 mM imidazole-HCl, 2 mM EDTA, 2 mM EGTA, 1 mM PMSF, 1 mM benzamidine, 10 ug/ml each of aprotinin, leupeptin, antipain, soybean trypsin inhibitor; Normal Mouse IgG (Millipore); Okadaic acid (OA) (Tocris); DMSO (Sigma).
(§2) • Species: Mus Musculus • Strain: Balb/c mice • Age: 6-8 weeks • Sex: female • Body weight: 18-22 g • Vendor: Shanghai Laboratory Animal Center, Shanghai, China; • Number of animals: 66 Balb/c mice plus spare
(§3) The mice were kept in laminar flow rooms at constant temperature and humidity with 4 animals in each cage. • Temperature: 20-25 • Humidity: 40-70%. • Light cycle: 12 hours light and 12 hours dark. • Cages: Made of polycarbonate. The size is 29 cm×17.5 cm×12 cm (L×w×H). The bedding material is wood debris, which is changed once per week. • Diet: Animals had free access to irradiation sterilized dry granule food during the entire study period. • Water: Animals had free access to sterile drinking water. • Cage identification: the identification labels for each cage contained the following information: number of animals, sex, strain, date arrival, treatment, study number, group number, and the starting date of the treatment. • Animal identification: Animals were marked by ear punch.
(§4) All the procedures related to animal handling, care, and the treatment in this study were performed according to guidelines approved by the Institutional Animal Care and Use Committee (IACUC) of WuXi AppTec (Shanghai), following the guidance of the Association for Assessment and Accreditation of Laboratory Animal Care (AAALAC). At the time of routine monitoring, the animals were checked and recorded for any effects of tumor growth on normal behavior such as mobility, food and water consumption (by looking only), body weight gain/loss, eye/hair matting and any other abnormal effect.
(§5) 1. Proper amount of the compounds were weighed. 2. The compounds were dissolved in 4% sterile sodium bicarbonate. 3. All of the compounds should be well dissolved and clear. 4. The compounds should be kept cold once in solution and injected within an hour. 5. The mice were administered intraperitoneally according to their body weights, 20 g mouse was treated with 0.2 ml compound solution. 6. Mice were treated with vehicle and compounds according to Table 1. 7. 3 hours after the dose, 3 mice from each group were euthanized by
(§6) CO2 exposure, and the brains and left lobe of livers were taken and snap-frozen in liquid nitrogen immediately. 6 hours after the dose, the other 3 mice from each group were euthanized by CO2 exposure, and the brains and left lobe of livers were taken and snap-frozen in liquid nitrogen immediately.
(§7) Preparation of malachite green phosphate detection solution Added […] of Solution B to each 1 mL of Solution A, kept at room temperature during use. […] of mixed solution AB is used per assay well.
(§8) Diluted 125 mL Phosphate Standard (Solution C) with 1125 mL of distilled water to make 0.1 mM working solution. The solution was used to prepare a phosphate standard curve as described in the table below.
(§9) 1. 25 μL of each phosphate standards was transferred to wells of microliter plate. 2. Added 100 μL of Malachite Green Solution AB. Mixed carefully without creating bubbles. 3. Cultured for 15 minutes at RT. 4. Measured absorbance at a wavelength between 650 nm in a microliter plate reader.
(§10) 1. Dissolved 1 mg Threonine Phosphopeptide (Catalog #12-219) in 1.10 mL of distilled water to prepare a 1 mM solution. 2. Aliquot peptide solution and stored at ˜20° C. as necessary.
(§11) 1. Mouse brain or liver was homogenized using lysis buffer (25 g/L), centrifuged at 12000 g for 10 minutes at […], and the supernatants were collected. 2. The protein was quantitated, and 240 μg of mouse brain or liver lysate was taken to assay phosphatase activity. 3. […]

PP2A [2] = assay: PP2A activity in mouse brains after IP dosing (PP2A immunoprecipitation phosphatase assay, malachite green); assay type: in vivo, Balb/c mice; set-up: Average Conc. (group of 3 mice): unit not given here; settings: brain
Procedure: as §1, §2, §3, §4, §5, §6, §7, §8, §9, §10, §11

[3] = high dose IP (mpk: 100 1.5, 113 2.2, 151 1.6, 157 2.0), 3 h
[4] = high dose IP (mpk: 100 1.5, 113 2.2, 151 1.6, 157 2.0), 6 h
[5] = low dose IP (mpk: 100 0.75, 113 1.1, 151 0.8, 153 0.85, 157 1.0), 3 h
[6] = low dose IP (mpk: 100 0.75, 113 1.1, 151 0.8, 153 0.85, 157 1.0), 6 h
[7] = high dose IP (mpk: 100 1.5, 113 2.2, 151 1.6, 153 1.7, 157 2.0), 3 h
[8] = high dose IP (mpk: 100 1.5, 113 2.2, 151 1.6, 153 1.7, 157 2.0), 6 h

Structure (SMILES): COC(=O)C1C2CCC(O2)C1C(=O)N1CCN(C)CC1 (centres unmarked) [Compound 151]
- Average Conc. (group of 3 mice) (PP2A [1]; [3]): 472.47
- Average Relative Activity (group, vehicle = 100) (PP2A [1]; [3]): 112.5
- Conc. (phosphate, single reading, per mouse) (PP2A [1]; [3]): 387.96 and 418.01 and 367.5 and 404.51 and 757.23 and 772.47
- Mean Conc. (per mouse) (PP2A [1]; [3]): 402.99 and 386.01 and 764.85
- Mean Conc. less IgG blank (per mouse) (PP2A [1]; [3]): 357.51 and 340.53 and 719.38
- Relative Conc. (per mouse, to vehicle) (PP2A [1]; [3]): 0.85 and 0.81 and 1.71
- Relative PP2A Activity (per mouse, vehicle = 100) (PP2A [1]; [3]): 85.13 and 81.08 and 171.29
- Average Conc. (group of 3 mice) (PP2A [1]; [4]): 241.1
- Average Relative Activity (group, vehicle = 100) (PP2A [1]; [4]): 54.24
- Conc. (phosphate, single reading, per mouse) (PP2A [1]; [4]): 320.03 and 325.26 and 287.37 and 311.32 and 231.2 and 244.26
- Mean Conc. (per mouse) (PP2A [1]; [4]): 322.65 and 299.35 and 237.73
- Mean Conc. less IgG blank (per mouse) (PP2A [1]; [4]): 277.17 and 253.87 and 192.25
- Relative Conc. (per mouse, to vehicle) (PP2A [1]; [4]): 0.62 and 0.57 and 0.43
- Relative PP2A Activity (per mouse, vehicle = 100) (PP2A [1]; [4]): 62.36 and 57.11 and 43.25
- Average Conc. (group of 3 mice) (PP2A [1]; [5]): 423.92
- Average Relative Activity (group, vehicle = 100) (PP2A [1]; [5]): 100.94
- Conc. (phosphate, single reading, per mouse) (PP2A [1]; [5]): 430.64 and 449.36 and 437.61 and 446.75 and 521.21 and 530.8
- Mean Conc. (per mouse) (PP2A [1]; [5]): 440 and 442.18 and 526
- Mean Conc. less IgG blank (per mouse) (PP2A [1]; [5]): 394.52 and 396.7 and 480.53
- Relative Conc. (per mouse, to vehicle) (PP2A [1]; [5]): 0.94 (2×) and 1.14
- Relative PP2A Activity (per mouse, vehicle = 100) (PP2A [1]; [5]): 93.94 and 94.46 and 114.42
- Average Conc. (group of 3 mice) (PP2A [1]; [6]): 307.58
- Average Relative Activity (group, vehicle = 100) (PP2A [1]; [6]): 69.2
- Conc. (phosphate, single reading, per mouse) (PP2A [1]; [6]): 260.81 and 279.97 and 333.1 and 357.92 and 428.03 and 458.51
- Mean Conc. (per mouse) (PP2A [1]; [6]): 270.39 and 345.51 and 443.27
- Mean Conc. less IgG blank (per mouse) (PP2A [1]; [6]): 224.91 and 300.03 and 397.79
- Relative Conc. (per mouse, to vehicle) (PP2A [1]; [6]): 0.51 and 0.67 and 0.89
- Relative PP2A Activity (per mouse, vehicle = 100) (PP2A [1]; [6]): 50.6 and 67.5 and 89.49
- Average Conc. (group of 3 mice) (PP2A [2]; [7]): 2166.08
- Average Relative Activity (group, vehicle = 100) (PP2A [2]; [7]): 87.89
- Conc. (phosphate, single reading, per mouse) (PP2A [2]; [7]): 3168.39 and 2285.85 and 2334.84 and 1781.17 and 1662.47 and 1991.94
- Mean Conc. (per mouse) (PP2A [2]; [7]): 2310.34 and 1721.82 and 2580.16
- Mean Conc. less IgG blank (per mouse) (PP2A [2]; [7]): 2272.32 and 1683.79 and 2542.14
- Relative Conc. (per mouse, to vehicle) (PP2A [2]; [7]): 1.05 and 0.78 and 1.17
- Relative PP2A Activity (per mouse, vehicle = 100) (PP2A [2]; [7]): 92.20 and 68.32 and 103.14
- Average Conc. (group of 3 mice) (PP2A [2]; [8]): 2082.71
- Average Relative Activity (group, vehicle = 100) (PP2A [2]; [8]): 74.99
- Conc. (phosphate, single reading, per mouse) (PP2A [2]; [8]): 1999.47 and 1945.40 and 1958.41 and 2142.56 and 2296.42 and 2382.19
- Mean Conc. (per mouse) (PP2A [2]; [8]): 1972.43 and 2050.48 and 2339.31
- Mean Conc. less IgG blank (per mouse) (PP2A [2]; [8]): 1934.40 and 2012.45 and 2301.28
- Relative Conc. (per mouse, to vehicle) (PP2A [2]; [8]): 0.79 and 0.82 and 0.94
- Relative PP2A Activity (per mouse, vehicle = 100) (PP2A [2]; [8]): 69.65 and 72.46 and 82.86
- Average Conc. (group of 3 mice) (PP2A [2]; [5]): 1599.57
- Average Relative Activity (group, vehicle = 100) (PP2A [2]; [5]): 64.90
- Conc. (phosphate, single reading, per mouse) (PP2A [2]; [5]): 1332.79 and 1495.39 and 2603.34 and 1925.68 and 1273.84 and 1194.57
- Mean Conc. (per mouse) (PP2A [2]; [5]): 1414.09 and 2264.51 and 1234.21
- Mean Conc. less IgG blank (per mouse) (PP2A [2]; [5]): 1376.06 and 2226.48 and 1196.18
- Relative Conc. (per mouse, to vehicle) (PP2A [2]; [5]): 0.63 and 1.03 and 0.55
- Relative PP2A Activity (per mouse, vehicle = 100) (PP2A [2]; [5]): 55.83 and 90.34 and 48.53
- Average Conc. (group of 3 mice) (PP2A [2]; [6]): 1662.31
- Average Relative Activity (group, vehicle = 100) (PP2A [2]; [6]): 59.85
- Conc. (phosphate, single reading, per mouse) (PP2A [2]; [6]): 1514.30 and 1280.55 and 1980.77 and 1880.56 and 1846.62 and 1699.26
- Mean Conc. (per mouse) (PP2A [2]; [6]): 1397.42 and 1930.66 and 1772.94
- Mean Conc. less IgG blank (per mouse) (PP2A [2]; [6]): 1359.40 and 1892.63 and 1734.91
- Relative Conc. (per mouse, to vehicle) (PP2A [2]; [6]): 0.56 and 0.77 and 0.71
- Relative PP2A Activity (per mouse, vehicle = 100) (PP2A [2]; [6]): 48.95 and 68.15 and 62.47
